Source: patent US20150139971A1, “METHOD FOR PREPARING REGULATORY DENDRITIC CELLS” (NIPPON KAYAKU KABUSHIKI KAISHA, priority 2010, published 2015)

How the values were obtained:
[1] = tested on: autoimmune angiitis model; details: Non-patent Document 6; cited from earlier work
[2] = tested on: dendritic cells derived from C57BL/6 mouse bone marrow cells; test: Expression of costimulatory molecules CD40, CD80, CD86 by flow cytometry (MFI) on matured dendritic cells; assay type: cell-based
Experimental: (§1) The C57BL/6 mouse bone marrow cells were cultured for 7 days in 10% FCS-RPMI1640 medium containing 20 ng/mL GM-CSF (Peprotech, origin: rabbit) and 20 ng/mL IL-4 (Peprotech, origin: rabbit) so as to cause the cells to differentiate into dendritic cells. Subsequently, 20 ng/mL TNF-α (Peprotech, origin: rabbit) was added for maturation. Treatment with NK026680 was performed by adding 50 ng/mL NK026680 on days 2 and 4 of culture and adding 250 ng/mL NK026680 on day 6 of culture.
The BALB/c mouse-derived spleen cell extract was added to dendritic cells derived from bone marrow cells which were collected from the C57BL/6 mouse, thereby causing cells to present a BALB/c antigen. The effect of incorporating the BALB/c antigen was confirmed by measuring the expression of 1-Ad (antibody: BD pharmingen), which is a BALB/c major histocompatibility complex (MHC), by flow cytometry. At this time, cells were cultured in the presence or the absence of NK026680, and the cells were allowed to mature with TNF-α (Peprotech, origin: rabbit). Maturation of dendritic cells was confirmed by flow cytometric analysis of the expression of the mature dendritic cell marker. Fluorescence-labeled antibodies against CD40, CD80 and CD86 costimulatory molecules were reacted in NK026680-treated dendritic cells (NK-DC) of the present invention and untreated dendritic cells (CTR-DC). Mean fluorescence intensity (MFI) was measured by flow cytometry, so that the expression levels of CD40, CD80, and CD86 were compared.

[3] = tested on: dendritic cells; details: dendritic cells cultured in the presence of the compound; cited from earlier work
[4] = tested on: graft-versus-host disease model; details: Non-patent Document 5; cited from earlier work
[5] = tested on: dendritic cells derived from C57BL/6 mouse bone marrow cells; test: IL-6 and IL-12p40 in culture supernatant of dendritic cells by ELISA; assay type: cell-based
Experimental: as §1
In this Example 2, in a manner similar to that in Example 1, the dendritic cells of the present invention treated with NK026680 and untreated dendritic cells, which had been obtained by differentiation and maturation of C57BL/6 mouse bone marrow cells, were obtained. After stimulation with TNF, cells were cultured for 24 hours. The thus obtained culture supernatant was collected, and then the concentrations of immune-response-stimulating cytokines, IL-6 and IL-12p40, were measured by ELISA (BD bioscience) (n=3).

COc1ccc(-c2ccnc3nc(NC(=O)N[C@@H](C)CCCC(C)(C)O)nn23)cc1 [NK026680, (S)-(+)-1-(5-hydroxy-1,5-dimethylhexyl)-3-[7-(4-methoxyphenyl)-[1,2,4]triazolo[1,5-a]pyrimidin-2-yl]urea]
effects against an autoimmune angiitis model [1]: exhibited effects | CD40 (MFI) ([2]; NK026680 50 ng/mL on days 2 and 4, 250 ng/mL on day 6, BALB/c antigen, matured with TNF-α, untreated cells 244): 159 MFI | CD86 (MFI) ([2]; NK026680 50 ng/mL on days 2 and 4, 250 ng/mL on day 6, BALB/c antigen, matured with TNF-α, untreated cells 356): 217 MFI | CD80 (MFI) ([2]; NK026680 50 ng/mL on days 2 and 4, 250 ng/mL on day 6, BALB/c antigen, matured with TNF-α, untreated cells 659): 320 MFI | expression levels of CD40, CD80 and CD86 compared with untreated dendritic cells (CTR-DC) ([2]; in words): lower | expression level of a costimulatory molecule [3]: decreased | effects against a graft-versus-host disease model [4]: exhibited effects | IL-6 ([5]; culture supernatant 24 hours after TNF stimulation, n=3, untreated cells 1235 ± 272): 219 ± 94 pg/mL | IL-12p40 ([5]; culture supernatant 24 hours after TNF stimulation, n=3, untreated cells 1555 ± 650): 347 ± 100 pg/mL | concentrations of IL-6 and IL-12p40 in culture supernatant compared with untreated dendritic cells ([5]; in words): lower
